According to publication PMC6780721, “GOBP1 Plays a Key Role in Sex Pheromones and Plant Volatiles Recognition in Yellow Peach Moth, Conogethes punctiferalis (Lepidoptera: Crambidae)” (Insects, 2019):
Read-outs that look alike come from different tables or passages of the source.

Experiments:
GOBP2 = GOBP2 (Conogethes punctiferalis, UniProt A0A146JYY2); experiment: Fluorescence competitive binding assay with 1-NPN, recombinant GOBP2; conditions: for Intensity (%) GOBP2: 1-NPN fluorescence remaining in competitive binding, 2 µM protein, 2 µM 1-NPN, triplicates
Chain of GOBP2 (A0A146JYY2 entry or part of it): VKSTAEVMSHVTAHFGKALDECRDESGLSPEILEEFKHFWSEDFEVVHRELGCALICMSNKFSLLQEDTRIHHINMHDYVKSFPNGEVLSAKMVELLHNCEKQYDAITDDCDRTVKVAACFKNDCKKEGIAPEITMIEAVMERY
Excerpt: (§1) Signal peptides were removed from complete ORF sequences of both genes and primers were designed, using antennal cDNA as the templates the GOBP1 and 2 were amplified and cloned using pEASY-T vector (TransGen Biotech, Beijing, China). The sense and antisense primers designed for GOBP1 and GOBP2. GOBP1 sense primers: 5′-[…]-3′ and antisense primer: 5′-[…]-3′ (BamH I and Hind III restriction sites are underlined); GOBP2 sense primer: 5′-[…]-3′ and antisense primer: 5′-[…]-3′ (EcoR I and Hind III restriction sites are underlined). The expected sequences were purified and cloned into the bacterial expression vector pET-30a (+) digested with the same enzymes. Then the plasmid was transformed into BL21 (DE3) competent cells (TransGen, Beijing, China) and the positive clone was inoculated in a liquid LB medium (4 L/protein) induced by 1 mM isopropyl-b-d-thiogalactoside (IPTG, Coollaber Science and Technology, Beijing, China) and placed in shaking incubator at 37 °C for 6 h. The induced bacterial cells were harvested from volume of 4 L liquid LB medium and centrifuged at 4 °C for 10 min (10,000 rpm). The pellets were subjected to ultrasonication and the recombinant GOBPs protein were purified by the Ni^2+-IDA column (His tagged) with a gradient concentration imidazole washing. The precipitate was resolved using 8 M carbamide and proteins were dialyzed in PBS buffer (pH 7.4) to remove the remaining chemical impurities from the protein. Purified protein concentrations of GOBP1 and GOBP2 was determined by the method of Bradford using BSA as standard The western blot method was performed to analyze the correct expression. […] The gel was sandwiched with a polyvinylidene fluoride (PVDF) membrane and sample in the gel was transferred to the PVDF (electrophoresis; 100 V, 200mA, 1 h). The film was washed four times using PBST (1% Tween-20 in 0.5 M Phosphate-buffered saline). 5% skim milk powder in PBST was used as blocking buffer. The PVDF membrane was incubated in primary antibody His (1:1000) and placed on shaker for overnight at 4 °C. The membrane was washed again using PBST and treated with second antibody sheep anti-rabbit antibody (1:5000) at 37 °C for 1 h. A final wash was given to the membrane and developed in ImageQuant LAS 4000 (GE, Pittsburgh, PA, USA) using western optimized HRP (horseradish peroxidase) reagent (Pierce, ELC kit, Thermoscientific, USA).
(§2) The fluorescence intensity was recorded on a FluoroMax-4 spectrophotometer (Horiba Scientific, Piscataway, NJ, USA) at room temperature using a 1 cm light path fluorimeter quartz cuvette. The fluorescent probe N-phenyl-1-naphthylamine (1-NPN) and all the tested chemicals were dissolved in HPLC purity methanol. The final concentration was prepared 2 mM. […] The fluorescence of 1-NPN was excited at 337 nm and emission spectra were recorded between […]. […] The GraphPad Prism 5 (GraphPad Software, Inc. San Diego, CA) was used to estimate the K1-NPN (KD of complex protein /1-NPN) values by nonlinear regression for a unique site of binding. It was assumed that the proteins were 100% active, with a stoichiometry of 1:1 (protein:ligand) at saturation. […] In the equation, [1-NPN] in the free concentration of 1-NPN, and K1-NPN is the dissociation constant of the complex protein/1-NPN.

GOBP1 = GOBP1 (Conogethes punctiferalis, UniProt A0A2H4FXX2); experiment: Fluorescence competitive binding assay with 1-NPN, recombinant GOBP1; conditions: for Intensity (%) GOBP1: 1-NPN fluorescence remaining in competitive binding, 2 µM protein, 2 µM 1-NPN, triplicates; for interaction with GOBP1 (in words): fluorescence binding assays, sex pheromones
Chain of GOBP1 (A0A2H4FXX2 entry or part of it): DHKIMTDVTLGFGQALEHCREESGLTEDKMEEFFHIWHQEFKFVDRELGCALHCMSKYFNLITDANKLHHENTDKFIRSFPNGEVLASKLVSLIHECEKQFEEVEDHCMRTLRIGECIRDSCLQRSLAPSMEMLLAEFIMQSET
Excerpt: as §1, §2

[1] = ligand concentration halving initial 1-NPN fluorescence, pH 7.4, mean ± SD, read-out: IC50 (μM) GOBP2
[2] = dissociation constant calculated from IC50: KD = [IC50]/(1+[1-NPN]/K1-NPN), pH 7.4, mean ± SD, read-out: KD (μM) GOBP1
[3] = ligand concentration halving initial 1-NPN fluorescence, pH 7.4, mean ± SD, read-out: IC50 (μM) GOBP1
[4] = dissociation constant calculated from IC50: KD = [IC50]/(1+[1-NPN]/K1-NPN), pH 7.4, mean ± SD, read-out: KD (μM) GOBP2

SMILES | Intensity (%) GOBP2 (GOBP2; pH 7.4, mean ± SD) | IC50 (GOBP2; [1]) | Intensity (%) GOBP1 (GOBP1; pH 7.4, mean ± SD) | Kd (GOBP1; [2]) | IC50 (GOBP1; [3]) | Kd (GOBP2) | Kd (GOBP1) | IC50 (GOBP2) | IC50 (GOBP1) | Kd (GOBP2; [4]) | interaction with GOBP1 (in words) (GOBP1)
CCCCCO [1-Amyl alcohol] | 96.54 ± 1.39% | 98.7 ± 2.3 µM | 95.2 ± 1.12% | 14.3 ± 1.74 µM | 33.5 ± 1.02 µM | – | – | – | – | – | –
c1ccc(Nc2cccc3ccccc23)cc1 [1-NPN, N-phenyl-1-naphthylamine, reference compound] | – | – | – | – | – | 0.7 ± 0.38 µM | 0.74 ± 0.41 µM | – | – | – | –
CCCCCCCCCCCCCCO [1-Tetradecanol] | 85.52 ± 1.47% | – | 45.8 ± 0.56% | – | – | 22.3 ± 1.89 µM | 2.05 ± 0.43 µM | 54 ± 2.56 µM | 4.81 ± 0.72 µM | – | –
O=Cc1ccccc1 [Benzaldehyde] | 94.76 ± 7.32% | – | 83.58 ± 6.61% | – | – | 31.9 ± 3.03 µM | 8.79 ± 0.59 µM | 77.1 ± 1.4 µM | 20.6 ± 1.31 µM | – | –
C=C1CC/C=C(\C)CC[C@@H]2[C@@H]1CC2(C)C [Caryophllene] | 89.93 ± 2.15% | 21 ± 2.1 µM | 68.98 ± 3.16% | 3.88 ± 0.91 µM | 9.09 ± 2.42 µM | – | – | – | – | 8.67 ± 1.12 µM | –
CC/C=C\CCO [Cis-3-hexen-1-ol] | 96.93 ± 0.99% | – | 94.99 ± 1.78% | – | – | 21.2 ± 1.14 µM | 33.5 ± 1.21 µM | 51.3 ± 1.6 µM | 78.63 ± 0.23 µM | – | –
CCCCC/C=C/CCCCCCCCC=O [E10-16:Ald, (E)-10-hexadecenal] | 84.05 ± 2.25% | 21.4 ± 4.15 µM | 47.29 ± 7.52% | 2.09 ± 0.45 µM | 4.9 ± 0.54 µM | – | – | – | – | 8.86 ± 0.93 µM | can interact
CC(C)=CCC/C(C)=C/CC/C(C)=C/CO [Farnesol] | 55.64 ± 1.78% | 3.98 ± 0.36 µM | 41.45 ± 2.51% | 0.35 ± 0.04 µM | 0.83 ± 0.09 µM | – | – | – | – | 1.64 ± 0.03 µM | –
CCCCCCC=O [Heptanal] | 96.80 ± 1.33% | 56 ± 1.54 µM | 75.78 ± 5.17% | 5.76 ± 0.64 µM | 13.5 ± 3.22 µM | – | – | – | – | 23.1 ± 4.68 µM | –
CCCCCCCCCCCCCCCC=O [Hexadecanal] | 67.94 ± 1.79% | 21.1 ± 1.83 µM | 48.64 ± 4.35% | 0.55 ± 0.08 µM | 1.29 ± 0.14 µM | – | – | – | – | 8.7 ± 0.74 µM | –
C=C(C)[C@H]1CC=C(C)CC1 [Limonene] | 92.62 ± 1.21% | 35.5 ± 1.14 µM | 43.27 ± 2.47% | 1.54 ± 0.39 µM | 3.62 ± 0.89 µM | – | – | – | – | 14.7 ± 2.78 µM | –
C=CC(C)(O)CCC=C(C)C (centres unmarked) [Linalool] | 91.86 ± 0.71% | – | 74.52 ± 2.42% | – | – | 18.5 ± 0.48 µM | 6.7 ± 0.69 µM | 44.8 ± 1.16 µM | 15.7 ± 1.61 µM | – | –
CCCCCCCCC=O [Nonanal] | 96.99 ± 2.63% | 92.8 ± 3.83 µM | 71.04 ± 8.80% | 5.69 ± 0.36 µM | 13.3 ± 2.41 µM | – | – | – | – | 38.3 ± 1.09 µM | –
CCCCCCCCCCC=O [Undecanal] | 98.12 ± 1.92% | 96.7 ± 2.41 µM | 78.33 ± 2.89% | 7.17 ± 0.67 µM | 16.8 ± 2.41 µM | – | – | – | – | 39.9 ± 9.7 µM | –
CCCCC/C=C\CCCCCCCCC=O [Z10-16:Ald, (Z)-10-hexadecenal] | 58.63 ± 2.72% | 8.65 ± 1.87 µM | 20.88 ± 0.48% | 1.2 ± 0.09 µM | 2.82 ± 0.44 µM | – | – | – | – | 3.58 ± 0.62 µM | can interact
CCCCCC=O [n-Hexanal] | 96.44 ± 1.50% | 68.1 ± 3.7 µM | 45.50 ± 4.58% | 3.11 ± 0.71 µM | 7.31 ± 1.43 µM | – | – | – | – | 28.1 ± 0.62 µM | –
CCCCCCO [n-Hexanol] | 94.24 ± 1.82% | 95.2 ± 1.68 µM | 97.23 ± 0.89% | 25.7 ± 0.43 µM | 60.4 ± 2.44 µM | – | – | – | – | – | –
CC1=CCC2CC1C2(C)C (stereo not drawn) [α-Pinene] | 98.57 ± 1.13% | – | 64.96 ± 3.26% | – | – | 28.1 ± 4.06 µM | 4.73 ± 0.48 µM | 67.9 ± 4.66 µM | 11.1 ± 3.47 µM | – | –
C=C1CCC2CC1C2(C)C (stereo not drawn) [β-Pinene] | 97.15 ± 3.95% | – | 66.21 ± 2.96% | – | – | 13.9 ± 1.36 µM | 4.24 ± 0.69 µM | 33.7 ± 3.29 µM | 9.94 ± 2.72 µM | – | –
